From patent publication EP4786486A1, “PEPTIDES FOR TREATING CARDIAC DISEASES” (Universidad Complutense De Madrid, priority 2023, dated 2025) come the findings set out here.

Where no end group is shown, it is not given here.

Holding throughout (assay type): cell-based
For assay [1], the target named is T1, human Nav1.5 channels (Homo sapiens, UniProt Q14524).
T1 construct: expressed in transfected cells; host or cells: CHO (Chinese hamster ovary) cells
Briefly: INa density, whole-cell patch-clamp in CHO cells co-transfected with Nav1.5 and the cDNA encoding the peptide. The conditions noted are these: vs. cells transfected only with Nav1.5 channels, various membrane potentials, P<0.05. On the procedure:
(§1) To analyse the effect of the peptides designed in example 1 on INa and IK1, the cDNA that encodes SEQ ID NO: 3 or SEQ ID NO: 4, described in SEQ ID NO: 5 and 20, respectively, was cloned into a pcDNA3.1^(+)® vector (Invitrogen) for transfection of Chinese hamster ovary (CHO) cells that were in turn transfected with the cDNA that encodes the human Nav1.5 channels (SEQ ID NO: 21). The CHO cells were further co-transfected with the EBO-pcD leu 2 vector (0.5 µg), which encodes the expression of the CD8 surface antigen. The subsequent addition of anti-CD8 antibody, bonded to Dynabeads M450® microspheres, allowed the cells that had been transfected to be identified. […] The currents were recorded at 20-22°C using an Axopatch 200B amplifier, filtered at half the sampling frequency and stored in a computer for further analysis. […] The capacitive current artefacts generated after the application of pulses from 0 mV to +10 mV were recorded at 50 kHz (filtered at 10 kHz) to calculate the capacitance of the cell, the access resistance and the input impedance. […] INa was recorded by applying 50 ms pulses from a holding potential of -120 mV to potentials between -80 and +50 mV in 5 mV increments. […]

Assay [2] has as its system human iPSC-derived cardiomyocytes. Briefly: INa density in hiPSC-CM infected with AAV9 encoding the peptide, patch-clamp. Conditions: hiPSC-CM infected 48 hours with AAV9 encoding DECA-11; vs. Ad-td-Tomato infected cardiomyocytes; P<0.05.
The subject of the next assay is human Kir2.1 channels. Briefly: IKir2.1 density, whole-cell patch-clamp in CHO cells co-transfected with Kir2.1 and the cDNA encoding the peptide. The conditions noted are these: CHO cells co-transfected with cDNA SEQ ID NO: 5; vs. cells transfected only with Kir2.1 channels; P<0.05. On the procedure: To do this, CHO cells were transfected with the cDNA that encodes the human cardiac channels (Kir2.1) that generate IK1 (Origene, USA) (SEQ ID NO: 22), co-transfecting cells, or not, with the cDNA described in SEQ ID NO: 5. […] The sampling frequency was 4 kHz and the data, filtered at a frequency of 2 kHz, were stored on hard disks for further analysis using the CLAMPFIT application of the pCLAMP software. The current (IKir2.1) was recorded by applying 250 ms pulses from -120 to +20 mV from a holding potential of -60 mV. The density of the same was obtained by normalising the amplitude of IKir2.1 at the end of the pulse by the capacitance of each cell (pA/pF). […] Like in example 2.1, each point represents the mean±SEM of "n" experiments obtained from at least 3 different CHO cell plates. One-way ANOVA followed by the Tukey test. * P<0.05 vs. cells transfected only with Kir2.1 channels.
In general terms: In patch-clamp work, channel activity is measured electrically.

Assay [3] concerns human iPSC-derived cardiomyocytes. As to the kind of experiment: IK1 density in hiPSC-CM infected with AAV9 encoding the peptide, patch-clamp. Conditions: hiPSC-CM infected 48 hours with AAV9 encoding DECA-11; vs. Ad-td-Tomato infected cardiomyocytes; P<0.05.
For assay [4], the system named is human Nav1.5 channels. As to the kind of experiment: Density of INa by whole-cell patch-clamp in CHO cells co-transfected with the cDNA encoding the peptide. Conditions: CHO cells expressing Nav1.5 plus cDNA of the peptide, vs cells transfected only with Nav1.5 channels. On the procedure: as §1

T1 sequence (Q14524 1-2015 isoform Q14524-2): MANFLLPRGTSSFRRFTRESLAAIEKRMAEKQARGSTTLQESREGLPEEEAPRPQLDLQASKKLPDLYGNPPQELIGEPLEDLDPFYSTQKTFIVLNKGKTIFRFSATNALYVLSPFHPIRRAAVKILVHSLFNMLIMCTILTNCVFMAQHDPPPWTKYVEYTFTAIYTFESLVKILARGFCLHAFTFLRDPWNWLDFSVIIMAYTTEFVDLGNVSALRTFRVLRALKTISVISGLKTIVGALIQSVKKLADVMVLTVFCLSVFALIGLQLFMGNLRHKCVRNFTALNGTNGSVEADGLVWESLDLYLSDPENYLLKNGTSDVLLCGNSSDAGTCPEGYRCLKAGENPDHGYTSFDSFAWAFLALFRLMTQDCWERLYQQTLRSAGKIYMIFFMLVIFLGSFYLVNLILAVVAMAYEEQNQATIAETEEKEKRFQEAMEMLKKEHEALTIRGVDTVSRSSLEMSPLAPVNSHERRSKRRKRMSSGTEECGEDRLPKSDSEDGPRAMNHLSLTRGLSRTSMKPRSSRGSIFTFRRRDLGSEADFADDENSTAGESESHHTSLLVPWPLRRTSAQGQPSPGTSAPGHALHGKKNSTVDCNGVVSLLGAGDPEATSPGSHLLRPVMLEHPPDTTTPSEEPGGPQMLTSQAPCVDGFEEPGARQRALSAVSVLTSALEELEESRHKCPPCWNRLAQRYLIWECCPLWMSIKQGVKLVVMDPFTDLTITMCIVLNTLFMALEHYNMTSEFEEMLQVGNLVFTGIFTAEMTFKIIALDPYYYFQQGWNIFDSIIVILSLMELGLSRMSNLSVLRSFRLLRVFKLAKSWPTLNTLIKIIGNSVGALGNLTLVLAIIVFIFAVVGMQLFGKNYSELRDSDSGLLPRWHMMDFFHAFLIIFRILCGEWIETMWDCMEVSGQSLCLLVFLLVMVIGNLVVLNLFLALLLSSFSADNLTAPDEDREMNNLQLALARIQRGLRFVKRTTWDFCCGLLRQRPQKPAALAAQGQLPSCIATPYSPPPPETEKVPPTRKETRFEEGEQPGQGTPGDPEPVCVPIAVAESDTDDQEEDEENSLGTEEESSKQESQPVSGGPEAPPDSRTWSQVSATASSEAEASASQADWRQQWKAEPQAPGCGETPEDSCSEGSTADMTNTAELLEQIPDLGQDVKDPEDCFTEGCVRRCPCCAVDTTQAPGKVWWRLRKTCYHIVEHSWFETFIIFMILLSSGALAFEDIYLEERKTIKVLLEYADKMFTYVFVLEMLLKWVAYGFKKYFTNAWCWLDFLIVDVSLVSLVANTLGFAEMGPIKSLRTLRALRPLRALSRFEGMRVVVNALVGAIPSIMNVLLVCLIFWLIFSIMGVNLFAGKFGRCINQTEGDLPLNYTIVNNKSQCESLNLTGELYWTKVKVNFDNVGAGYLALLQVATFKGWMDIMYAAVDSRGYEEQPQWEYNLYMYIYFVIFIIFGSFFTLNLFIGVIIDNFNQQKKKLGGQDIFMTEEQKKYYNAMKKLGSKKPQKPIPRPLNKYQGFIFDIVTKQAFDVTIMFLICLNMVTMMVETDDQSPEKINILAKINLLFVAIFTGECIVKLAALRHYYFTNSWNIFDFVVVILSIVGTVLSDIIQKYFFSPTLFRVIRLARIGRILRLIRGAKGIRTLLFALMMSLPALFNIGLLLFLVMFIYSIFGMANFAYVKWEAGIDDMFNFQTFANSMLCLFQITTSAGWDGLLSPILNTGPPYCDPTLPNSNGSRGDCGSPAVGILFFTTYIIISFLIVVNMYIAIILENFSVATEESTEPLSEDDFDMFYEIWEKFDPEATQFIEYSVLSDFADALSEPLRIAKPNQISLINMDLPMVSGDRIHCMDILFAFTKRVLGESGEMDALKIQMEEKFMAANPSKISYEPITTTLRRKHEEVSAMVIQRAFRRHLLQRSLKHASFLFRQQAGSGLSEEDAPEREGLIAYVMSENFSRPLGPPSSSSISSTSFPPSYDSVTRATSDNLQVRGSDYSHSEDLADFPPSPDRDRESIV

For the sequence “RFTRESLAAIE (listed as Homo sapiens) [SEQ ID NO: 3, 11-amino acid peptide, amino acids 15-25 of human Nav1.5]”, the “density of INa” value (with human Nav1.5 channels [1]; in assay [2]) was “significantly increase” each time. In the assay on human Kir2.1 channels, the “density of IKir2.1” value was “significantly increase”. Besides, in assay [3], the “density of IK1” value is on record as “significantly increase”.
Regarding RFTRESLAAIE [DECA-11, RFTRESLAAIE], the “density of INa” value in the assay on human Nav1.5 channels [4] was “significantly increase the density of INa”.
